How the values were obtained:
Conditions in all cases: 72 h
KCL-22 [1] = system: KCL-22
How it was run: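 In 384-well plates holding acoustically pre-printed compounds at five tenfold doses from 1 to 10,000 nM, in duplicate, fifteen myeloid leukaemia cell lines were grown in RPMI 1640 for 72 h at 37 °C with 5% CO2. Luminescent ATP viability was scaled between vehicle and a positive control at 10 µM. The IC50 was then taken from log-logistic dose–response fits with four parameters.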

HL-60 [2] = assay: cell viability (% survival relative to DMSO control); higher = less cytotoxic
How it was run: (§1)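 In 384-well plates, the full library was rescreened in duplicate on HL-60 cells in RPMI 1640 with 10% FBS, at 1–10,000 nM in five tenfold concentrations, for 72 h at 37 °C, 5% CO2. Each run also held DMSO or 100 nM of one of three metabolic inhibitors. Viability was measured by CellTiter-Glo and normalised to DMSO wells and to wells with proteasome inhibitor, present at 10 μM. Any area under the curve comes from four-parameter log-logistic fitting with drc and PharmacoGx.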

BV-173 = assay: cell viability (% survival relative to DMSO control, bortezomib = 0%); higher = less cytotoxic
How it was run: (§2)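 Reported values are percent survival from duplicate wells, averaged. Fifteen myeloid leukaemia cell lines were treated in 384-well plates with compounds at 1, 10, 100, 1000 or 10000 nM for 72 h at 37 °C in 5% CO2. Signals from CellTiter-Glo luminescence were scaled with vehicle as 100% and a 10 µM positive control as 0%.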

HEL = assay: as above
How it was run: as §2

HL-60 [3] = assay: as above
How it was run: as §2

K-562 = assay: as above
How it was run: as §2

KCL-22 [4] = assay: as above
How it was run: as §2

KG-1 = assay: as above
How it was run: as §2

KU-812 = assay: as above
How it was run: as §2

LAMA-84 = assay: as above
How it was run: as §2

ML-2 = assay: as above
How it was run: as §2

MOLM-13 = assay: as above
How it was run: as §2

MV4-11 = assay: as above
How it was run: as §2

Mono-Mac-6 = assay: as above
How it was run: as §2

NOMO-1 = assay: as above
How it was run: as §2

SHI-1 = assay: as above
How it was run: as §2

THP-1 = assay: as above
How it was run: as §2

HL-60 [5] = assay: area under dose-response curve (viability, 1 nM-10 uM) (fraction (0-1)); higher = more sensitive
How it was run: as §1

Nc1ccccc1C(=O)C[C@H](N)C(=O)O [L-Kynurenine]
Conditions	IC50 (cell viability) [µM]
KCL-22 [1]	> 10

cell viability [%], HL-60 [2]
Conditions	0.001 µM	0.01 µM	0.1 µM	1 µM	10 µM
co-treatment: AZD3965 100 nM	93.4	77.9	104	99.66	104
co-treatment: DMSO vehicle	92.2	96.4	100.5	99	106.8
co-treatment: GSK2194069 100 nM	96.6	94.9	101	98.86	100
co-treatment: pictilisib 100 nM	88.1	95.5	103	94.5	105

Conditions	area under dose-response curve, co-treatment: AZD3965 100 nM	area under dose-response curve, co-treatment: DMSO vehicle	area under dose-response curve, co-treatment: GSK2194069 100 nM	area under dose-response curve, co-treatment: pictilisib 100 nM	cell viability, 1 nM [%]	cell viability, 10 nM [%]	cell viability, 100 nM [%]	cell viability, 1000 nM [%]	cell viability, 10000 nM [%]
BV-173	–	–	–	–	108	90.1	101	107	102
HEL	–	–	–	–	117	80.1	102	104	92.7
HL-60 [3]	–	–	–	–	122	100	111	105	109
HL-60 [5]	< 0.0301	< 0.0301	< 0.0301	< 0.0301	–	–	–	–	–
K-562	–	–	–	–	104	125	93.3	101	110
KCL-22 [4]	–	–	–	–	104	–	96.6	103	97.3
KG-1	–	–	–	–	103	89.4	92.8	102	96.7
KU-812	–	–	–	–	98.8	90.5	99.5	106	99.2
LAMA-84	–	–	–	–	105	105	100	107	107
ML-2	–	–	–	–	107	103	103	100	98.7
MOLM-13	–	–	–	–	86.5	93.2	100	97.7	66.1
MV4-11	–	–	–	–	108	103	93.1	101	89.4
Mono-Mac-6	–	–	–	–	101	91.7	102	93.8	95.9
NOMO-1	–	–	–	–	102	96.3	99	117	101
SHI-1	–	–	–	–	120	102	90.6	104	98.4
THP-1	–	–	–	–	97	93.1	101	102	102

CCN(CC)CCCC(C)Nc1ccnc2cc(Cl)ccc12 (centres undefined) [Chloroquine]
Conditions	IC50 (cell viability) [µM]
KCL-22 [1]	> 10

cell viability [%], HL-60 [2]
Conditions	0.001 µM	0.01 µM	0.1 µM	1 µM	10 µM
co-treatment: AZD3965 100 nM	102	87.5	107.4	104	97.5
co-treatment: DMSO vehicle	104	91.3	102.4	106	99.7
co-treatment: GSK2194069 100 nM	102.2	77.2	98.3	102	89.7
co-treatment: pictilisib 100 nM	96.1	67.7	104	103.8	100

Conditions	area under dose-response curve, co-treatment: AZD3965 100 nM	area under dose-response curve, co-treatment: DMSO vehicle	area under dose-response curve, co-treatment: GSK2194069 100 nM	area under dose-response curve, co-treatment: pictilisib 100 nM	cell viability, 1 nM [%]	cell viability, 10 nM [%]	cell viability, 100 nM [%]	cell viability, 1000 nM [%]	cell viability, 10000 nM [%]
BV-173	–	–	–	–	111	89.5	111	97.1	85.2
HEL	–	–	–	–	95.4	94.5	89.6	97.6	104
HL-60 [3]	–	–	–	–	101	79.8	97.1	101	76.4
HL-60 [5]	< 0.0301	< 0.0301	< 0.0301	< 0.0301	–	–	–	–	–
K-562	–	–	–	–	101	111	105	103	86.3
KCL-22 [4]	–	–	–	–	95.6	106	100	95.7	102
KG-1	–	–	–	–	112	101	89.7	102	88.1
KU-812	–	–	–	–	109	97.8	102	98.1	96.9
LAMA-84	–	–	–	–	105	101	101	101	99.1
ML-2	–	–	–	–	108	98.7	97	100	94
MOLM-13	–	–	–	–	103	81.8	112	107	101
MV4-11	–	–	–	–	108	93.7	105	104	90.5
Mono-Mac-6	–	–	–	–	105	94.9	104	93.4	92.1
NOMO-1	–	–	–	–	110	99.3	97.9	96.2	93.7
SHI-1	–	–	–	–	108	106	96.6	89.8	92
THP-1	–	–	–	–	108	101	101	98.7	98.5

C=C(C)[C@H]1Cc2c(ccc3c2O[C@@H]2COc4cc(OC)c(OC)cc4[C@@H]2C3=O)O1 [Rotenone]
Conditions	IC50 (cell viability) [µM]
KCL-22 [1]	0.206

cell viability [%], HL-60 [2]
Conditions	0.001 µM	0.01 µM	0.1 µM	1 µM	10 µM
co-treatment: AZD3965 100 nM	96.5	99.7	83	83.4	7.8
co-treatment: DMSO vehicle	97.7	103	86.415	30.8	10.4
co-treatment: GSK2194069 100 nM	86.2	91.1	78.3	35.8	12.9
co-treatment: pictilisib 100 nM	83.6	74.5	83.9	34.5	9.82

Conditions	area under dose-response curve, co-treatment: AZD3965 100 nM	area under dose-response curve, co-treatment: DMSO vehicle	area under dose-response curve, co-treatment: GSK2194069 100 nM	area under dose-response curve, co-treatment: pictilisib 100 nM	cell viability, 1 nM [%]	cell viability, 10 nM [%]	cell viability, 100 nM [%]	cell viability, 1000 nM [%]	cell viability, 10000 nM [%]
BV-173	–	–	–	–	106	77	49.9	1.45	0.515
HEL	–	–	–	–	99.4	92	63.2	12.3	1.89
HL-60 [3]	–	–	–	–	97.1	79.3	82.1	0.525	3.28
HL-60 [5]	0.137	0.319	0.289	0.256	–	–	–	–	–
K-562	–	–	–	–	88.9	66.4	30.6	3.39	2.57
KCL-22 [4]	–	–	–	–	97.8	103	81.7	0.654	1.21
KG-1	–	–	–	–	93.6	83.7	43.7	11.5	11.6
KU-812	–	–	–	–	87.9	65.9	16.6	3.5	2.89
LAMA-84	–	–	–	–	101	87.5	51.4	18.3	14.6
ML-2	–	–	–	–	94.4	94.1	97.1	1.51	3.18
MOLM-13	–	–	–	–	103	77.8	67.2	2.3	0.733
MV4-11	–	–	–	–	97.2	70	58.4	0.45	0.258
Mono-Mac-6	–	–	–	–	94.1	96.4	76.7	9.03	2.24
NOMO-1	–	–	–	–	93.9	109	92	39.8	8.45
SHI-1	–	–	–	–	96.3	93.4	73.7	4.23	5.24
THP-1	–	–	–	–	98.9	104	76.2	37.6	24.5

Reference: the supplement of paper PMC8671470
